According to the supplement of paper PMC11208160:

Assay: recombinant UMI read abundance after kanamycin selection (control-corrected) (log10(CPM+1)); higher = more efficient recombination; extreme values may be limits of the assay; sequences stand for … in AGTGCAGAGAAAATCGGCCAGTTTTCTCTGCCTGCAGTCCGCATGCCGTGGGACCCCTTGGGTTCTAACCTGTTGCCTAGATTTATGCAGCGGACTGCCTTTCTCCCAAAGTGATAAACCGG…AGGTTGGTTTCACT; site = the 11-nt donor
Procedure, shortened: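 Two replicates each of selected and unselected plating were used in this pooled Escherichia coli screen of donor and donor-binding-loop pairs for the IS621 bridge recombinase. Selection was with IPTG (0.07 mM) and kanamycin. Counts of recombinant UMIs, amplified across the donor–target junction, were converted to CPM, averaged, scaled by control-derived factors and reported as log10(CPM+1).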
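Note: IS621 bridge recombinase in Escherichia coli cells against a fixed T5 target plasmid.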

| Sequence | recombinant UMI read abundance (log10) |
| --- | --- |
| ATTGACACATGGACCGGTTTTCCCGGTAATCCGTATTTGGT (site ATTGAGACTAC) | 0.811 |
| ATTGACACATGGACCGGTTTTCCCGGTAATCCGTATTTGGT (site ATTGATACTAC) | 0.459 |
| ATTGAGACATGGACCGGTTTTCCCGGTAATCCGTATTTGCT (site ATTGAGACTAA) | 0.627 |
| ATTGAGACATGGACCGGTTTTCCCGGTAATCCGTATTTGCT (site ATTGAGACTAC) | 0.379 |
| ATTGAGACATGGACCGGTTTTCCCGGTAATCCGTATTTGCT (site ATTGAGACTAG) | 2.42 |
| ATTGAGACATGGACCGGTTTTCCCGGTAATCCGTATTTGCT (site ATTGAGACTAT) | 0.827 |
| ATTGAGACATGGACCGGTTTTCCCGGTAATCCGTATTTGGC (site ATTGAGACTAC) | 0.0133 |
| ATTGAGACATGGACCGGTTTTCCCGGTAATCCGTATTTGGC (site ATTGAGACTCC) | 0.38 |
| ATTGAGACATGGACCGGTTTTCCCGGTAATCCGTATTTGGC (site ATTGAGACTGC) | 1.83 |
| ATTGAGACATGGACCGGTTTTCCCGGTAATCCGTATTTGGC (site ATTGAGACTTC) | 0.679 |
| ATTGAGACATGGACCGGTTTTCCCGGTAATCCGTATTTGTT (site ATTGAGACTAA) | 1.71 |
| ATTGAGACATGGACCGGTTTTCCCGGTAATCCGTATTTGTT (site ATTGAGACTAC) | 0.013 |
| ATTGAGACATGGACCGGTTTTCCCGGTAATCCGTATTTGTT (site ATTGAGACTAG) | 2.02 |
| ATTGAGACATGGACCGGTTTTCCCGGTAATCCGTATTTGTT (site ATTGAGACTAT) | 0.811 |
| ATTGAGCCATGGACCGGTTTTCCCGGTAATCCGTATTTGGT (site ATTGAGACTAC) | 0.00491 |
| ATTGAGCCATGGACCGGTTTTCCCGGTAATCCGTATTTGGT (site ATTGAGCCTAC) | 0.00384 |
| ATTGAGCCATGGACCGGTTTTCCCGGTAATCCGTATTTGGT (site ATTGAGGCTAC) | 0.0212 |
| ATTGAGCCATGGACCGGTTTTCCCGGTAATCCGTATTTGGT (site ATTGAGTCTAC) | 0.633 |
| ATTGAGGCATGGACCGGTTTTCCCGGTAATCCGTATTTGGT (site ATTGAGACTAC) | 0.413 |
| ATTGAGGCATGGACCGGTTTTCCCGGTAATCCGTATTTGGT (site ATTGAGCCTAC) | 0.486 |
| ATTGAGGCATGGACCGGTTTTCCCGGTAATCCGTATTTGGT (site ATTGAGGCTAC) | 0.927 |
| ATTGAGGCATGGACCGGTTTTCCCGGTAATCCGTATTTGGT (site ATTGAGTCTAC) | 0.801 |
| ATTGCAGCATGGACCGGTTTTCCCGGTAATCCGTATTTGAG (site ATTGCAGCTCT) | 1.03 |
| ATTGCCGCATGGACCGGTTTTCCCGGTAATCCGTATTTGTC (site ATTGCCGCTGA) | 0.656 |
| ATTGCCTCATGGACCGGTTTTCCCGGTAATCCGTATTTGCT (site ATTGCCTCTAG) | 2.03 |

| Sequence | recombinant UMI read abundance (log10) |
| --- | --- |
| ATTGCGACATGGACCGGTTTTCCCGGTAATCCGTATTTGGT (site ATTGAGACTAC) | 0.0594 |
| ATTGCGACATGGACCGGTTTTCCCGGTAATCCGTATTTGGT (site ATTGCGACTAC) | 0.639 |
| ATTGCGACATGGACCGGTTTTCCCGGTAATCCGTATTTGGT (site ATTGGGACTAC) | 0.456 |
| ATTGCGACATGGACCGGTTTTCCCGGTAATCCGTATTTGGT (site ATTGTGACTAC) | 0.225 |
| ATTGGGACATGGACCGGTTTTCCCGGTAATCCGTATTTGGT (site ATTGAGACTAC) | 0.413 |
| ATTGGGACATGGACCGGTTTTCCCGGTAATCCGTATTTGGT (site ATTGCGACTAC) | 0.021 |
| ATTGGGACATGGACCGGTTTTCCCGGTAATCCGTATTTGGT (site ATTGGGACTAC) | 0.896 |
| ATTGGGACATGGACCGGTTTTCCCGGTAATCCGTATTTGGT (site ATTGTGACTAC) | 0.0209 |
| ATTGTGCCATGGACCGGTTTTCCCGGTAATCCGTATTTGAC (site ATTGTGCCTGT) | 0.819 |
| ATTGTGCCATGGACCGGTTTTCCCGGTAATCCGTATTTGCA (site ATTGTGCCTTG) | 0.682 |
| ATTGTGCCATGGACCGGTTTTCCCGGTAATCCGTATTTGTG (site ATTGTGCCTCA) | 0.054 |
| ATTGTGTCATGGACCGGTTTTCCCGGTAATCCGTATTTGAC (site AATGTGTCTGT) | 0 |
| ATTGTGTCATGGACCGGTTTTCCCGGTAATCCGTATTTGAC (site ACTGTGTCTGT) | 1.41 |
| ATTGTGTCATGGACCGGTTTTCCCGGTAATCCGTATTTGAC (site AGTGTGTCTGT) | 0 |
| ATTGTGTCATGGACCGGTTTTCCCGGTAATCCGTATTTGAC (site ATTGTGTCTGT) | 1.6 |
| ATTGTTACATGGACCGGTTTTCCCGGTAATCCGTATTTGTG (site ATTGTTACTCA) | 0.634 |
| ATTTATACATGGACCGGTTTTCCCGGTAATCCGTATTTGAC (site ATATATACTGT) | 0.718 |
| ATTTATACATGGACCGGTTTTCCCGGTAATCCGTATTTGAC (site ATCTATACTGT) | 1.22 |
| ATTTATACATGGACCGGTTTTCCCGGTAATCCGTATTTGAC (site ATGTATACTGT) | 1.21 |
| ATTTATACATGGACCGGTTTTCCCGGTAATCCGTATTTGAC (site ATTTATACTGT) | 0.544 |
| ATTTCTCCATGGACCGGTTTTCCCGGTAATCCGTATTTGAC (site ATTTCTCCTGT) | 0 |
| CAAAATGCATGGACCGGTTTTCCCGGTAATCCGTATTTGAC (site CAAAATGCTGT) | 2.14 |
| CAAACATCATGGACCGGTTTTCCCGGTAATCCGTATTTGCT (site CAAACATCTAG) | 1.94 |
| CAAACATCATGGACCGGTTTTCCCGGTAATCCGTATTTGCT (site CGATCATCTAG) | 0 |
| CAAACGCCATGGACCGGTTTTCCCGGTAATCCGTATTTGTG (site CAAACGCCTCA) | 0.56 |

| Sequence | recombinant UMI read abundance (log10) |
| --- | --- |
| CAAACGCCATGGACCGGTTTTCCCGGTAATCCGTATTTGTG (site CAACCGCCTCA) | 0.033 |
| CAAACGCCATGGACCGGTTTTCCCGGTAATCCGTATTTGTG (site CAAGCGCCTCA) | 0.0253 |
| CAAACGCCATGGACCGGTTTTCCCGGTAATCCGTATTTGTG (site CAATCGCCTCA) | 0.0256 |
| CAAATAACATGGACCGGTTTTCCCGGTAATCCGTATTTGCA (site CAAATAACTTG) | 1.1 |
| CAAATCCCATGGACCGGTTTTCCCGGTAATCCGTATTTGCT (site CAAATCCCTAG) | 0 |
| CAAATCCCATGGACCGGTTTTCCCGGTAATCCGTATTTGCT (site CAACTCCCTAG) | 0.00602 |
| CAAATCCCATGGACCGGTTTTCCCGGTAATCCGTATTTGCT (site CAAGTCCCTAG) | 0 |
| CAAATCCCATGGACCGGTTTTCCCGGTAATCCGTATTTGCT (site CAATTCCCTAG) | 0 |
| CAAATGGCATGGACCGGTTTTCCCGGTAATCCGTATTTGCA (site CAAATGGCTTG) | 2.04 |
| CAACAACCATGGACCGGTTTTCCCGGTAATCCGTATTTGTC (site CAACAACCTGA) | 0.474 |
| CAACAGGCATGGACCGGTTTTCCCGGTAATCCGTATTTGTA (site CAACAGGCTTA) | 1.18 |
| CAACATACATGGACCGGTTTTCCCGGTAATCCGTATTTGTG (site CAACATACTCA) | 1.83 |
| CAACCGCCATGGACCGGTTTTCCCGGTAATCCGTATTTGTG (site CAAACGCCTCA) | 0.00379 |
| CAACCGCCATGGACCGGTTTTCCCGGTAATCCGTATTTGTG (site CAACCGCCTCA) | 0.00924 |
| CAACCGCCATGGACCGGTTTTCCCGGTAATCCGTATTTGTG (site CAAGCGCCTCA) | 0.0348 |
| CAACCGCCATGGACCGGTTTTCCCGGTAATCCGTATTTGTG (site CAATCGCCTCA) | 0.0138 |
| CAACGCACATGGACCGGTTTTCCCGGTAATCCGTATTTGTT (site CAACGCACTAA) | 1.62 |
| CAAGAGCCATGGACCGGTTTTCCCGGTAATCCGTATTTGTG (site CAAGAGCCTCA) | 1.28 |
| CAAGAGCCATGGACCGGTTTTCCCGGTAATCCGTATTTGTG (site CAAGCGCCTCA) | 0.0351 |
| CAAGAGCCATGGACCGGTTTTCCCGGTAATCCGTATTTGTG (site CAAGGGCCTCA) | 0.55 |
| CAAGAGCCATGGACCGGTTTTCCCGGTAATCCGTATTTGTG (site CAAGTGCCTCA) | 0.0217 |
| CAAGCAACATGGACCGGTTTTCCCGGTAATCCGTATTTGCT (site CAAGCAACTAG) | 1.57 |
| CAAGCAACATGGACCGGTTTTCCCGGTAATCCGTATTTGCT (site CAAGCACCTAG) | 0 |
| CAAGCAACATGGACCGGTTTTCCCGGTAATCCGTATTTGCT (site CAAGCAGCTAG) | 0 |
| CAAGCAACATGGACCGGTTTTCCCGGTAATCCGTATTTGCT (site CAAGCATCTAG) | 0.289 |
